# Results published in patent US9611277B2 (Janssen Pharmaceutica NV, priority 2013, dated 2017).
# How the values were obtained:
# rat orexin 1 receptor = rat orexin 1 receptor (Rattus norvegicus, UniProt P56718); assay: Rat orexin 1 receptor radioligand binding; settings: rat orexin 1 receptor; averages of 2-20 runs; read-out: rOX1 Ki
# Method in brief: (§1)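 Ki values derive from one-site competition IC50s corrected with the radioligand's predetermined Kd, triplicates per run, averaged over 2-20 runs. Cell homogenates (rat or human OX1R) compete against [^3H]-thiazolyl-oxadiazolyl-pyrrolidine methanone in PBS; 10 μM almorexant sets nonspecific binding; scintillation counting after washing.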
# human orexin 1 receptor = human orexin 1 receptor (Homo sapiens, UniProt O43613); assay: Human orexin 1 receptor radioligand binding; settings: human orexin 1 receptor; averages of 2-20 runs; read-out: hOX1 Ki
# Method in brief: as §1
# human orexin 2 receptor = human orexin 2 receptor (Homo sapiens (Human), UniProt O43614); assay: Human orexin 2 receptor radioligand binding; settings: human orexin 2 receptor; averages of 2-20 runs; read-out: hOX2 Ki
# human orexin 2 receptor, sequence (O43614 whole entry): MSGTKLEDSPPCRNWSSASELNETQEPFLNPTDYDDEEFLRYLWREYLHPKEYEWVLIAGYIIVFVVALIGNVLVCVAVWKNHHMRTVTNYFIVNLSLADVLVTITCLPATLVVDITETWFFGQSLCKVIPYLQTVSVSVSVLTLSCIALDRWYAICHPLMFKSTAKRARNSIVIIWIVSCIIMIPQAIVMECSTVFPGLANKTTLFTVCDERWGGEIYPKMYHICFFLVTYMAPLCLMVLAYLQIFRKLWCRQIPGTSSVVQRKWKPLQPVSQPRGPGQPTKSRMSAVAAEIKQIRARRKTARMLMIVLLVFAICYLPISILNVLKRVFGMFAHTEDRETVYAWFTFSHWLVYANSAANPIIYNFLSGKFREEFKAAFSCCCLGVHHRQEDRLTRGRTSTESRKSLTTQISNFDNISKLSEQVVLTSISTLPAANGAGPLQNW
# Method in brief: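 Ki derived from one-site competition IC50 using predetermined Kd of [3H]-EMPA, triplicate points, 2-20 runs averaged. Binding done on homogenized HEK293 cells stably expressing human orexin 2 receptor, DMSO ≤0.1%, with 10 μM almorexant defining nonspecific binding; filtered, washed, scintillation counted.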
Ki (rat orexin 1 receptor) [nM],Ki (human orexin 1 receptor) [nM],Ki (human orexin 2 receptor) [nM],Compound
200,109,4500,"O=C(c1cc(F)ccc1-n1nccn1)N1C[C@H]2C[C@@H](Oc3cnc(C(F)(F)F)cn3)[C@@H]1C2 [Example 124, (5-fluoro-2-(2H-1,2,3-triazol-2-yl)phenyl)((1S,4R,6R)-6-((5-(trifluoromethyl)pyrazin-2-yl)oxy)-2-azabicyclo[2.2.1]heptan-2-yl)methanone]"
220,88,5500,"Cc1ccc(-n2nccn2)c(C(=O)N2C[C@H]3C[C@@H](Oc4cnc(C(F)(F)F)cn4)[C@@H]2C3)n1 [Example 125, (6-methyl-3-(2H-1,2,3-triazol-2-yl)pyridin-2-yl)((1S,4R,6R)-6-((5-(trifluoromethyl)pyrazin-2-yl)oxy)-2-azabicyclo[2.2.1]heptan-2-yl)methanone]"
69,62,3800,"O=C(c1cc(F)ccc1-c1ncccn1)N1C[C@H]2C[C@@H](Oc3cnc(C(F)(F)F)cn3)[C@@H]1C2 [Example 128, (5-fluoro-2-(pyrimidin-2-yl)phenyl)((1S,4R,6R)-6-((5-(trifluoromethyl)pyrazin-2-yl)oxy)-2-azabicyclo[2.2.1]heptan-2-yl)methanone]"
29,27,3500,"O=C(c1ccccc1-c1ncccn1)N1C[C@H]2C[C@@H](Oc3cnc(C(F)(F)F)cn3)[C@@H]1C2 [Example 130, (2-(pyrimidin-2-yl)phenyl)((1S,4R,6R)-6-((5-(trifluoromethyl)pyrazin-2-yl)oxy)-2-azabicyclo[2.2.1]heptan-2-yl)methanone]"
60,102,4200,"Cc1cnc(O[C@@H]2C[C@H]3C[C@@H]2N(C(=O)c2cccc(F)c2-c2ncccn2)C3)nc1 [Example 133, (3-fluoro-2-(pyrimidin-2-yl)phenyl)((1S,4R,6R)-6-((5-methylpyrimidin-2-yl)oxy)-2-azabicyclo[2.2.1]heptan-2-yl)methanone]"
61,100,1200,"CCc1cnc(O[C@@H]2C[C@H]3C[C@@H]2N(C(=O)c2ccccc2-n2nccn2)C3)nc1 [Example 135, (2-(2H-1,2,3-triazol-2-yl)phenyl)((1S,4R,6R)-6-((5-ethylpyrimidin-2-yl)oxy)-2-azabicyclo[2.2.1]heptan-2-yl)methanone]"
39,65,1700,"CCc1cnc(O[C@@H]2C[C@H]3C[C@@H]2N(C(=O)c2cccc(F)c2-c2ncccn2)C3)nc1 [Example 137, ((1S,4R,6R)-6-((5-ethylpyrimidin-2-yl)oxy)-2-azabicyclo[2.2.1]heptan-2-yl)(3-fluoro-2-(pyrimidin-2-yl)phenyl)methanone]"
208,150,3700,"O=C(c1ccccc1-n1nccn1)N1C[C@H]2C[C@@H](Oc3ccc(C(F)(F)F)nn3)[C@@H]1C2 [Example 139, (2-(2H-1,2,3-triazol-2-yl)phenyl)((1S,4R,6R)-6-((6-(trifluoromethyl)pyridazin-3-yl)oxy)-2-azabicyclo[2.2.1]heptan-2-yl)methanone]"
24,34,7300,"Cc1ccc(C(=O)N2C[C@H]3C[C@@H](Nc4ccc(C(F)(F)F)cn4)[C@@H]2C3)c(-n2nccn2)n1 [Example 143, (6-methyl-2-(2H-1,2,3-triazol-2-yl)pyridin-3-yl)((1S,4S,6R)-6-((5-(trifluoromethyl)pyridin-2-yl)amino)-2-azabicyclo[2.2.1]heptan-2-yl)methanone]"
17,7,934,"O=C(c1ccc(F)cc1-n1nccn1)N1C[C@H]2C[C@@H](Nc3ccc(C(F)(F)F)cn3)[C@@H]1C2 [Example 145, (4-fluoro-2-(2H-1,2,3-triazol-2-yl)phenyl)((1S,4S,6R)-6-((5-(trifluoromethyl)pyridin-2-yl)amino)-2-azabicyclo[2.2.1]heptan-2-yl)methanone]"
6,3,150,"O=C(c1c(F)cccc1-n1nccn1)N1CC2CC(Nc3ccc(C(F)(F)F)cn3)C1C2 [Example 146, (2-fluoro-6-(2H-1,2,3-triazol-2-yl)phenyl)((1S,4S,6R)-6-((5-(trifluoromethyl)pyridin-2-yl)amino)-2-azabicyclo[2.2.1]heptan-2-yl)methanone]"
3,5,189,"O=C(c1ccccc1-c1ncccn1)N1C[C@H]2C[C@@H](Nc3ccc(C(F)(F)F)cn3)[C@@H]1C2 [Example 148, (2-(pyrimidin-2-yl)phenyl)((1S,4S,6R)-6-((5-(trifluoromethyl)pyridin-2-yl)amino)-2-azabicyclo[2.2.1]heptan-2-yl)methanone]"
30,16,1600,"Cc1noc(-c2cc(F)ccc2C(=O)N2C[C@H]3C[C@@H](Nc4ccc(C(F)(F)F)cn4)[C@@H]2C3)n1 [Example 152, (4-fluoro-2-(3-methyl-1,2,4-oxadiazol-5-yl)phenyl)((1S,4S,6R)-6-((5-(trifluoromethyl)pyridin-2-yl)amino)-2-azabicyclo[2.2.1]heptan-2-yl)methanone]"

# Second part, the compound before the results:
Compound,Ki (rat orexin 1 receptor) [nM],Ki (human orexin 1 receptor) [nM],Ki (human orexin 2 receptor) [nM]
"O=C(c1cccc(F)c1-c1ncccn1)N1C[C@H]2C[C@@H](Oc3ccc(C(F)F)cn3)[C@@H]1C2 [Example 123, ((1S,4R,6R)-6-((5-(difluoromethyl)pyridin-2-yl)oxy)-2-azabicyclo[2.2.1]heptan-2-yl)(3-fluoro-2-(pyrimidin-2-yl)phenyl)methanone]",11,10,149
"O=C(c1cccc(F)c1-c1ncccn1)N1C[C@H]2C[C@@H](Oc3cnc(C(F)(F)F)cn3)[C@@H]1C2 [Example 126, (3-fluoro-2-(pyrimidin-2-yl)phenyl)((1S,4R,6R)-6-((5-(trifluoromethyl)pyrazin-2-yl)oxy)-2-azabicyclo[2.2.1]heptan-2-yl)methanone]",27,22,4200
"O=C(c1ccc(F)cc1-c1ncccn1)N1C[C@H]2C[C@@H](Oc3cnc(C(F)(F)F)cn3)[C@@H]1C2 [Example 127, (4-fluoro-2-(pyrimidin-2-yl)phenyl)((1S,4R,6R)-6-((5-(trifluoromethyl)pyrazin-2-yl)oxy)-2-azabicyclo[2.2.1]heptan-2-yl)methanone]",116,143,> 10000
"O=C(c1c(F)cccc1-c1ncccn1)N1C[C@H]2C[C@@H](Oc3cnc(C(F)(F)F)cn3)[C@@H]1C2 [Example 129, (2-fluoro-6-(pyrimidin-2-yl)phenyl)((1S,4R,6R)-6-((5-(trifluoromethyl)pyrazin-2-yl)oxy)-2-azabicyclo[2.2.1]heptan-2-yl)methanone]",53,47,4400
"Cc1cnc(O[C@@H]2C[C@H]3C[C@@H]2N(C(=O)c2ccccc2-n2nccn2)C3)nc1 [Example 131, (2-(2H-1,2,3-triazol-2-yl)phenyl)((1S,4R,6R)-6-((5-methylpyrimidin-2-yl)oxy)-2-azabicyclo[2.2.1]heptan-2-yl)methanone]",140,132,2200
"O=C(c1cccc(F)c1-c1ncccn1)N1C[C@H]2C[C@@H](Oc3ccc(C(F)(F)F)nn3)[C@@H]1C2 [Example 141, (3-fluoro-2-(pyrimidin-2-yl)phenyl)((1S,4R,6R)-6-((6-(trifluoromethyl)pyridazin-3-yl)oxy)-2-azabicyclo[2.2.1]heptan-2-yl)methanone]",208,348,> 10000
"O=C(c1cccc(F)c1-n1nccn1)N1C[C@H]2C[C@@H](Nc3ccc(C(F)(F)F)cn3)[C@@H]1C2 [Example 144, (3-fluoro-2-(2H-1,2,3-triazol-2-yl)phenyl)((1S,4S,6R)-6-((5-(trifluoromethyl)pyridin-2-yl)amino)-2-azabicyclo[2.2.1]heptan-2-yl)methanone]",3,3,133
"O=C(c1c(F)cccc1-c1ncccn1)N1C[C@H]2C[C@@H](Nc3ccc(C(F)(F)F)cn3)[C@@H]1C2 [Example 147, (2-fluoro-6-(pyrimidin-2-yl)phenyl)((1S,4S,6R)-6-((5-(trifluoromethyl)pyridin-2-yl)amino)-2-azabicyclo[2.2.1]heptan-2-yl)methanone]",5,6,190
"Cc1cnc(C(=O)N2C[C@H]3C[C@@H](Nc4ccc(C(F)(F)F)cn4)[C@@H]2C3)c(-c2ncccn2)c1 [Example 149, (5-methyl-3-(pyrimidin-2-yl)pyridin-2-yl)((1S,4S,6R)-6-((5-(trifluoromethyl)pyridin-2-yl)amino)-2-azabicyclo[2.2.1]heptan-2-yl)methanone]",14,7,4600
"Cc1ccc(-c2ncccn2)c(C(=O)N2C[C@H]3C[C@@H](Nc4ccc(C(F)(F)F)cn4)[C@@H]2C3)n1 [Example 150, (6-methyl-3-(pyrimidin-2-yl)pyridin-2-yl)((1S,4S,6R)-6-((5-(trifluoromethyl)pyridin-2-yl)amino)-2-azabicyclo[2.2.1]heptan-2-yl)methanone]",13,9,88
"Cc1cnc(-c2ncccn2)c(C(=O)N2C[C@H]3C[C@@H](Nc4ccc(C(F)(F)F)cn4)[C@@H]2C3)c1 [Example 151, (5-methyl-2-(pyrimidin-2-yl)pyridin-3-yl)((1S,4S,6R)-6-((5-(trifluoromethyl)pyridin-2-yl)amino)-2-azabicyclo[2.2.1]heptan-2-yl)methanone]",21,47,5100
